Reference: US5366983A, “Use of quaternary ammonium compounds to remove salmonella contamination from meat products” (The Board of Trustees of The University of Arkansas, priority 1992, dated 1994)
Several values for one entry are separate records, joined by “and”; a condition that tells them apart may be missing. Identical values can stand only once. Like-named read-outs stand apart in the source and are kept apart here.

Columns and labels:
[1] = tested on: Salmonella typhimurium ATCC 14028 attached to human buccal epithelial cells; assay: microbe, parasite or virus in culture; assay type: cell-based; details: for adherence, mean value of attached bacteria: Table A-3; for EC50: Salmonella enterica, Epithelial cell, read-out: EC50 (±SD), detachment
Procedure: Additional studies on the detachment of Salmonella typhimurium from human buccal epithelial cells were conducted.
S. typhimurium ATCC 14028 was grown in nutrient broth (BBL Microbiology system, Cockeysville, Md.) for 16 hours at 37° C. The cells were centrifuged and washed twice with 0.008 M phosphate buffered saline (PBS, at pH 7.2) at 4500 rpm for 10 minutes. The last suspension was diluted in PBS to obtain a cell concentration 0.5 to 1×10^9 cells/ml using spectrophotometric measurement. Human epithelial cells were obtained by swabbing the buccal surface of a healthy, nonsmoking donor. […] The number of living cells was estimated and the suspension was diluted to 0.5 to 1×10^5 cells/ml.
The suspension of the human buccal cells was mixed with an equal volume of the bacterial suspension (3.0 ml), or PBS (0.8 ml) in 10 ml Erlenmeyer flasks. Contact was allowed for 1.5 hours at 35° C. under agitation. After incubation, 1.0 ml of each suspension was transferred into an Eppendorff vial, centrifuged at 3000 rpm for 10 minutes, and washed with PBS. The cells were treated with 1.0 ml PBS or 1.0 ml of the test chemical solution. Treatment was performed by suspending, gently vortexing, and centrifuging at 1500 rpm for 10 minutes. After the treatment, the cells were washed and placed on microscopic slides for examination.
EC50 represents the inverse measurement of the potency of a compound. EC50 values were determined by a nonlinear regression of the detachment effect versus the cationic surfactant concentration data from Table A-3.

[2] = tested on: Salmonella typhimurium ATCC 14028 attached to human buccal epithelial cells; assay type: cell-based; details: Table A-1
Procedure: Studies were conducted on the attachment of Salmonella typhimurium to human buccal epithelial cells using the modified procedure of Boussard et al., International J. Pharmaceutics 53: 253-256 (1989). In this study, the activities of cationic and anionic surfactant compounds as well as certain chelating agents were compared on the detachment of S. typhimurium from epithelial cells.
To this end, bacteria were grown on nutrient agar for 16 hours at 37° C. The cells were suspended in 0.008 M phosphate buffered saline (PBS) at pH 7.2 and washed two times at 4500 rpm for 10 minutes. The last suspension was diluted in PBS to obtain a cell concentration of 0.5 to 1×10^9 cells/ml. Human epithelial cells were obtained by swabbing the buccal surface of a healthy, nonsmoking donor. […] The number of living cells was estimated and the suspension diluted to 0.5 to 1×10^5 cells/ml.
Next, the suspension of the human buccal cells was mixed with an equal volume of the bacterial suspension (3.0 ml), or PBS (0.8 ml). Contact was allowed for 1.5 hours at 35° C. under agitation. The mixtures were then centrifuged for 10 minutes at 4500 rpm. Each suspension, 1.0 ml, was transferred into Eppendorf vials and washed with PBS at 1500 rpm for 10 minutes. After the washing, the cells were treated with 1.0 ml PBS or 1.0 ml of the test chemical solution. Treatment was performed by suspending and vortexing on a low speed for 30 seconds followed by centrifugation at 1500 rpm for 10 minutes.
After the treatment, the cells were washed once with PBS and then 20 μl of erythrosin B was added to each vial. The suspension was centrifuged at 1500 rpm for 10 minutes, and the cells were washed twice under the same conditions. The final pellet was suspended in 300 μl of PBS. This suspension was spread out onto microscope slides and dried overnight at room temperature. After counter staining with methylene blue, the slides were microscopically examined under oil immersion.

[3] = tested on: Salmonella typhimurium ATCC 14028; assay: Effect on viability of Salmonella in suspension (Tables D-1 to D-3); assay type: cell-based; details: for bacterial viability: Table D-1
Procedure: EC50 values for four of the compounds were calculated from the bactericidal activity of the compounds as a function of molar concentration by a nonlinear regression algorithm.
In addition to the quaternary ammonium compounds, the antimicrobial activities of chelating agents Na2 -EDTA and EGTA were investigated. Na2 -EDTA was purchased from the Sigma Chemical Company (St. Louis, Mo.). Na2 -EDTA was dissolved in 0.04 M PPB prior to the assay and further dilutions were made in the same buffer.
EGTA was purchased from the Aldrich Chemical Company (Milwaukee, Wis.). EGTA was dissolved in 0.04 M PPB according to the procedure described by Harafuji and Ogawa (J. Biochem. 87:1305-1312 (1980)). After heating EGTA for 15 minutes at 80° C., the pH was adjusted to 7.0 by addition of NaOH. EGTA was filter-sterilized using a 0.2 μm Acro disc filter (Gelman Sciences; Ann Arbor, Mich.) prior to the assay. Further dilutions were made in sterile PPB.

[4] = tested on: Salmonella typhimurium ATCC 14028; assay: Minimum growth inhibitory concentration, macrodilution; assay type: cell-based; details: Mueler Hinton broth, macrodilution (NCCLS)
Procedure: Minimum growth inhibitory concentrations (MICs) of quaternary ammonium compounds and Na2 -EDTA for Salmonella were determined using Mueler Hinton broth (BBL Microbiology system, Cockeysville, Md.) and by the macrodilution method established by the National Committee for Clinical Laboratory Standards (NCCLS). Escherichia coli ATCC 25922 and Staphylococcus aureus ATCC 29213 were included in each assay as reference strains.

[5] = tested on: Salmonella typhimurium on chicken skin; assay: Effect of surfactants on Salmonella attached to chicken skin, drumsticks (Tables F1-F4); details: 25° C.
Procedure: The following experiments utilizing chicken legs were conducted to determine the killing potential of a variety of surfactants against Salmonella on the skin and free in solutions. To this end, chicken legs obtained from the Department of Agriculture at the University of Arkansas, Fayetteville, were incubated for thirty minutes at room temperature with a 1:5000 dilution of Salmonella typhimurium. The chicken legs were removed five at a time and then rinsed twice in tap water to remove the unattached and excess Salmonella. The rinse water was sampled, diluted, and then plated onto XLD pour plates. […] The chicken legs were then removed and rinsed twice in tap water to remove the released Salmonella and excess chemicals. Rinses were then sampled, diluted, and then plated onto XLD pour plates.
The chicken legs were then individually washed with 100 ml sterile double distilled water, and then shaken fifty times. Samples of the wash H2 O were diluted and plated onto XLD pour plates. The chicken legs were further swabbed after the washing step above. The swabs were then plated onto the XLD plates. A set of wash samples were enriched with TT Broth Base Hajna and then plated onto XLD plates.
All of the samples were plated in 1 ml aliquots onto XLD pour plates. A positive control sample incubated in sterile double distilled water at 4° C. was run for each of the aforementioned conditions. Treatments occurred at both 4° C. and 25° C. The data is reported as the mean number of CFU/ml. The ratio in the table represents the number of chicken legs out of a sample of ten chicken legs producing the notated number of colonies, as indicated by the +, ++, +++, or ++++.

Row | SMILES | adherence, mean value of attached bacteria ([1]; 100 ug/ml) | adherence, mean value of attached bacteria ([1]; 150 ug/ml) | adherence, mean value of attached bacteria ([1]; 250 ug/ml) | adherence, mean value of attached bacteria ([1]; 300 ug/ml) | EC50 [1] [µM] | adherence, mean value of attached bacteria ([2]; 10 ug/ml) | adherence, mean value of attached bacteria ([2]; 25 ug/ml) | adherence, mean value of attached bacteria ([2]; 75 ug/ml) | adherence, mean value of attached bacteria ([2]; 100 ug/ml) | bacterial viability ([3]; 10 ug/ml) | bacterial viability ([3]; 100 ug/ml) | bacterial viability ([3]; 200 ug/ml) | bacterial viability ([3]; 1000 ug/ml) [CFU/ml] | Enrichment, chicken legs out of ten ([5]; 0.1%) | Rinse H2O ([5]; 0.1%) | Surfactant Solution ([5]; 0.1%) [CFU/ml] | Swabs, chicken legs producing the notated number of colonies ([5]; 0.1%) | Wash H2O, chicken legs producing the notated number of colonies ([5]; 0.1%) | Wash H2O, colonies ([5]; 0.1%) | Enrichment, chicken legs out of ten ([5]; 1.0%) | also measured
1 | CCCCCCCCCCCC[n+]1ccccc1 [DPC, dodecylpyridinium chloride] | 129 ± 87 | 141 ± 66 | 62 ± 50 | 61 ± 34 | 716 ± 63 | 70 ± 35 | 55 ± 23 | 34 ± 20 | 34 ± 18 | 1.39 ± 0.34 × 10^9 CFU/ml | 9.8 ± 2.17 × 10^8 CFU/ml and 8.85 ± 0.3 × 10^8 CFU/ml | < 10^5 CFU/ml | 0 | 8/10 | 0 CFU/ml | 0 | 0/10 | 7/10 | ++ (11-100) | 0/10 | adherence, mean value of attached bacteria ([1]; 175 ug/ml): 110 ± 73; adherence, mean value of attached bacteria ([1]; 450 ug/ml): 54 ± 23; adherence, mean value of attached bacteria ([2]; 50 ug/ml): 46 ± 28; adherence, mean value of attached bacteria ([2]; 500 ug/ml): 14 ± 10; bacterial viability ([3]; 400 ug/ml): 0 CFU/ml; MIC ([4]; Salmonella enterica, read-out: MIC): 80 µg/mL; Rinse H2O ([5]; 1.0%): 0 CFU/ml; Surfactant Solution ([5]; 1.0%): 0 CFU/ml; Swabs, chicken legs producing the notated number of colonies ([5]; 1.0%): 0/10; Wash H2O, colonies ([5]; 1.0%): 0 CFU/ml; Enrichment, chicken legs out of ten ([5]; .01%): 10/10; Rinse H2O ([5]; .01%): + (1-10); Surfactant Solution ([5]; .01%): 0 CFU/ml; Swabs, chicken legs producing the notated number of colonies ([5]; .01%): 6/10; Swabs, colonies ([5]; .01%): + (1-10); Wash H2O, chicken legs producing the notated number of colonies ([5]; .01%): 10/10; Wash H2O, colonies ([5]; .01%): ++ (11-100)
2 | CCCCCCCCCCCC[N+](C)(C)C.[Br-] [DTMAB, dodecyltrimethylammonium bromide] | 92 ± 58 and 74 ± 56 | 80 ± 59 | 63 ± 35 | 54 ± 35 | 868 ± 112 | 76 ± 43 | 41 ± 19 | 30 ± 18 | 23 ± 18 | 1.44 ± 0.07 × 10^9 CFU/ml | 1.3 ± 0.03 × 10^9 CFU/ml | 8.75 ± 1.28 × 10^8 CFU/ml | 100 ± 100 | 8/10 | + (1-10) | 0 | 6/10 | 10/10 | ++ (11-100) | 0/10 | adherence, mean value of attached bacteria ([1]; 50 ug/ml): 113 ± 85; adherence, mean value of attached bacteria ([1]; 75 ug/ml): 102 ± 59; adherence, mean value of attached bacteria ([1]; 200 ug/ml): 60 ± 43; adherence, mean value of attached bacteria ([1]; 325 ug/ml): 68 ± 39; bacterial viability ([3]; 350 ug/ml): 800 ± 1300 CFU/ml; EC50 ([3]; Salmonella enterica, read-out: EC50 (±SD), effect on viability in suspension): 730 ± 64 µM; MIC [4]: 150 µg/mL; MIC ([4]; Salmonella enterica): 156 µg/mL; Swabs, colonies ([5]; 0.1%): + (1-10); Rinse H2O ([5]; 1.0%): 0 CFU/ml; Surfactant Solution ([5]; 1.0%): 0 CFU/ml; Swabs, chicken legs producing the notated number of colonies ([5]; 1.0%): 0/10; Wash H2O, colonies ([5]; 1.0%): 0 CFU/ml; Enrichment, chicken legs out of ten ([5]; .01%): 10/10; Rinse H2O ([5]; .01%): + (1-10); Surfactant Solution ([5]; .01%): + (1-10); Swabs, chicken legs producing the notated number of colonies ([5]; .01%): 10/10; Swabs, colonies ([5]; .01%): + (1-10); Wash H2O, chicken legs producing the notated number of colonies ([5]; .01%): 10/10; Wash H2O, colonies ([5]; .01%): ++ (11-100)
